One assay has as its target integrin αvβ3 (Homo sapiens, UniProt P05106+P06756). The assay can be described thus: Target affinity test by surface plasmon resonance (SPR), integrin αvβ3. The format is binding. The settings on record: for Kd: SPR (Biacore T200), CM5 chip, 25° C., KD=Kd/Ka; for affinity constant (KD) to integrin αvβ3, in words: SPR. As to the method: (§1) Surface plasmon resonance (SPR) technique was used to test the affinity of the compound in the examples to the target protein integrin α5β1. Specifically, the following operations were performed.
(§2) The affinity constants (KD) of the compounds to the target proteins integrin α5β1, αvβ3, and αvβ5 were calculated according to the formula of KD=Kd/Ka (the lower the value of KD, the higher the affinity of the compounds of the examples to the target protein integrin α5β1).

In a further assay the target is integrin α5β1 (Homo sapiens, UniProt P05556+P08648). As to the kind of experiment: Target affinity test by surface plasmon resonance (SPR), integrin α5β1. The following applies: for affinity constant (KD) to integrin α5β1, in words: SPR; for Kd: SPR (Biacore T200), CM5 chip, 25° C., KD=Kd/Ka. The format is binding. As to the method: as §1, §2
Sequence of integrin α5β1 (P08648 42-995 limits assumed): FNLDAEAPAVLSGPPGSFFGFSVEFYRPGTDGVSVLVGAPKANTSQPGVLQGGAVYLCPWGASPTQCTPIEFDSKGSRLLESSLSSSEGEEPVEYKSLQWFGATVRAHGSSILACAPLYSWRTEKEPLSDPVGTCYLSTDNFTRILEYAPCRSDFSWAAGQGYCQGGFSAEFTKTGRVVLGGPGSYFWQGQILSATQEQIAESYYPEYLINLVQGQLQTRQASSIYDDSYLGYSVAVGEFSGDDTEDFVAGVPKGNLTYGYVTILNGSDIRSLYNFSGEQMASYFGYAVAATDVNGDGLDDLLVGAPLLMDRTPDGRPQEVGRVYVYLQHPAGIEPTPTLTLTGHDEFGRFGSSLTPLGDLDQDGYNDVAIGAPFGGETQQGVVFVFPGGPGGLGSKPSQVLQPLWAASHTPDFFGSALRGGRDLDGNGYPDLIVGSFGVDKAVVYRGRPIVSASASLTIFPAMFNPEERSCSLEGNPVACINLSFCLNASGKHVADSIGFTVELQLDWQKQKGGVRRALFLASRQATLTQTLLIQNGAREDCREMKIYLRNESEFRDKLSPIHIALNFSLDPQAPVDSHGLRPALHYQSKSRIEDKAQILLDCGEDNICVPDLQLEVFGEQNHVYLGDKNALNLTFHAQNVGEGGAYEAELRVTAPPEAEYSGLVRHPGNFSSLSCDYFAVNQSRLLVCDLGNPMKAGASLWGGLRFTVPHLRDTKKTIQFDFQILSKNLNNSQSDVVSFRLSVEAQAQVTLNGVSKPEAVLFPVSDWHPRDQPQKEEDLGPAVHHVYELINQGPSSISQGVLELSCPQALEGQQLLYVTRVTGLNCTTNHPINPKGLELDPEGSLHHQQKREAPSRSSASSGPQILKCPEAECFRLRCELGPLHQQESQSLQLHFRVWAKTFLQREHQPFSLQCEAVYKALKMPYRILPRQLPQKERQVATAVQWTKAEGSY
Sequence of integrin α5β1 (P05556 21-728 limits assumed): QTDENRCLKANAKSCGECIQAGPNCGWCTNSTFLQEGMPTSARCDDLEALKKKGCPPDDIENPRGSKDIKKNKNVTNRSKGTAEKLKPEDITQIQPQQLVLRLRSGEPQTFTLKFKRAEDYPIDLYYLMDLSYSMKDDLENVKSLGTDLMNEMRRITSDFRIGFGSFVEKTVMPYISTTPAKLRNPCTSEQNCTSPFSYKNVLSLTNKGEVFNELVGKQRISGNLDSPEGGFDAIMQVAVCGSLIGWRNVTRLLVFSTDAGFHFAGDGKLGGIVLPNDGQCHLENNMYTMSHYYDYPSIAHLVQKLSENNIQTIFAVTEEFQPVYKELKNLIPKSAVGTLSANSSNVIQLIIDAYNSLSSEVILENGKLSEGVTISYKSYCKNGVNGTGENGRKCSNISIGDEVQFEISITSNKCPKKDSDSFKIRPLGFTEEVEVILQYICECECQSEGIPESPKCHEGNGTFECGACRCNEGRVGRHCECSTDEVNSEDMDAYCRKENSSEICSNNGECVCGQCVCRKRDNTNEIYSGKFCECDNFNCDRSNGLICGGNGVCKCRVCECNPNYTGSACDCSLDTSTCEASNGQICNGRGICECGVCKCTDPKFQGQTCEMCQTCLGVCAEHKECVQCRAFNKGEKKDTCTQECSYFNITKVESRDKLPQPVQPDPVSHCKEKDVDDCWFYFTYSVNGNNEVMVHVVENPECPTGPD
A general note: SPR reads the build-up and loss of mass on a sensor chip optically.

Non-standard residues stand in square brackets, D forms with d. Residues, ends and D or L forms follow the SMILES beside them. ξ: configuration not given here. *: point of attachment. DOTA = O=C(O)CN1CCN(CC(=O)O)CCN(CC(=O)*)CCN(CC(=O)O)CC1; NOTA = O=C(O)CN1CCN(CC(=O)O)CCN(CC(=O)*)CC1; PEG4 = NCCOCCOCCOCCOCCC(=O)O; ξIle = CC[C@H](C)C(N)C(=O)O; Pip = O=C(O)[C@@H]1CCCCN1; ξN = NC(=O)CC(N)C(=O)O; AEEA = NCCOCCOCC(=O)O; Aib = CC(C)(N)C(=O)O; AEA = NCCOCC(=O)O

Sequence of integrin αvβ3 (P06756 31-992 limits assumed): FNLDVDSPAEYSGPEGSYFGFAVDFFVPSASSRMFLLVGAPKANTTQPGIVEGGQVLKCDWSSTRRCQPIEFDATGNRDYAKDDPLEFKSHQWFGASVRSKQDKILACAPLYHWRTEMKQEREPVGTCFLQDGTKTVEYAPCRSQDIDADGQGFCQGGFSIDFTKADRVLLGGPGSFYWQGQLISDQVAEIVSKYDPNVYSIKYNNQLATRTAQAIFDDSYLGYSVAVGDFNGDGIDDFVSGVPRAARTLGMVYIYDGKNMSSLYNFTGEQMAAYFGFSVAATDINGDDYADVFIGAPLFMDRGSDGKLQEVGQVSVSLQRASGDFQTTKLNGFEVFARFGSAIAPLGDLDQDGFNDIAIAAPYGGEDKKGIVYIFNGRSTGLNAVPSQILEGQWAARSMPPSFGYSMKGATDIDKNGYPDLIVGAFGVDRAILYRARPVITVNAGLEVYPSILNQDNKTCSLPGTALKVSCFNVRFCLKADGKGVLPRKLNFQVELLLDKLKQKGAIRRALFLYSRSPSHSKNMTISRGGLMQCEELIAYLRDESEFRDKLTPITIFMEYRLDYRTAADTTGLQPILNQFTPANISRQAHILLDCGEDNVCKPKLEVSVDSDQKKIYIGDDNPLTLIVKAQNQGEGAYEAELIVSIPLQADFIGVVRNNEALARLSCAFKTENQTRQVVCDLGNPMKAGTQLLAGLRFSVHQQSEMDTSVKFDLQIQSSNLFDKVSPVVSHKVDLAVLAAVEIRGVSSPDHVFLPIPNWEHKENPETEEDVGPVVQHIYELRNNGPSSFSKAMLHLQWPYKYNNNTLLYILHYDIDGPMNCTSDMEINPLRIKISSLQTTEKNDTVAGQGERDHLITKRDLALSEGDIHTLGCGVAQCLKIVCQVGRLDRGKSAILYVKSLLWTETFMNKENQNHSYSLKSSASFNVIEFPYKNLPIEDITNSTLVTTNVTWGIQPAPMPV
Sequence of integrin αvβ3 (P05106 27-718 limits assumed): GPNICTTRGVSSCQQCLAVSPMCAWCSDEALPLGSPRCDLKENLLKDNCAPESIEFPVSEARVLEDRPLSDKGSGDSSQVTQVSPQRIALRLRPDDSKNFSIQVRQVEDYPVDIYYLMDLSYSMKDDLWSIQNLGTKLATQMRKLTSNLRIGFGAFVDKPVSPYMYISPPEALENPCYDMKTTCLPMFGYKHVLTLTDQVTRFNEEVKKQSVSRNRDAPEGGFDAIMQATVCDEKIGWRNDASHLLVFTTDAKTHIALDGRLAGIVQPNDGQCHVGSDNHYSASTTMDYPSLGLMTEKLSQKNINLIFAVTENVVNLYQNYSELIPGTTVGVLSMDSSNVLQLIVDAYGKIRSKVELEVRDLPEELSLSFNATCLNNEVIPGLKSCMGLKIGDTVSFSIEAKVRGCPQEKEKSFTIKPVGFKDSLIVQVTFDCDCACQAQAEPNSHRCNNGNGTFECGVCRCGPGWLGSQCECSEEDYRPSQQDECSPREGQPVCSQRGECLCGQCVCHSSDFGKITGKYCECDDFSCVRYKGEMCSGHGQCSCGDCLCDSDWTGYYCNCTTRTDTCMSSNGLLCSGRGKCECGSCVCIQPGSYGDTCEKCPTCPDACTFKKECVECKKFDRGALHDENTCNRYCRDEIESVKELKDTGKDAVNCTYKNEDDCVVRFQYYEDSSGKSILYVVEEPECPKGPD

`CC[C@H](C)C(NC(=O)[C@@H](NC(=O)[C@H](CC(=O)O)NC(=O)[C@H](CC(N)=O)NC(=O)COCCOCCNC(=O)CN1CCN(CC(=O)O)CCN(CC(=O)O)CCN(CC(=O)O)CC1)C(C)C)C(=O)N[C@@H](CC(N)=O)C(=O)O` (stereo partly drawn) [TM14] ({DOTA-AEEA}-NDV[ξIle]N-OH): the Kd (in general, a measure of binding affinity in units of concentration) at integrin αvβ3 came out at 36.7 nM. On integrin α5β1, the “affinity constant (KD) to integrin α5β1, in words” value is on record as “better than nM level” and binding was characterised by a dissociation constant (Kd) of 9.43 nM.
In the case of `CC[C@H](C)C(NC(=O)[C@@H](NC(=O)[C@H](CC(=O)O)NC(=O)[C@H](CC(N)=O)NC(=O)[C@H](CC(=O)O)NC(=O)CNC(=O)[C@H](CCCNC(=N)N)NC(=O)COCCNC(=O)CN1CCN(CC(=O)O)CCN(CC(=O)O)CCN(CC(=O)O)CC1)C(C)C)C(=O)N[C@@H](CC(N)=O)C(=O)O` (stereo partly drawn) [TM15] ({DOTA-AEA}-RGDNDV[ξIle]N-OH), on integrin αvβ3, the “affinity constant (KD) to integrin αvβ3, in words” value is on record as “nM level” and the Kd turned out to be 1.69 nM. At integrin α5β1, the “affinity constant (KD) to integrin α5β1, in words” value was “better than nM level” and the affinity, expressed as Kd, was 0.992 nM.
On integrin αvβ3, `CC[C@H](C)[C@H](NC(=O)C(C)(C)NC(=O)[C@H](CC(=O)O)NC(=O)[C@H](CC(N)=O)NC(=O)CN1CCN(CC(=O)O)CCN(CC(=O)O)CCN(CC(=O)O)CC1)C(=O)N[C@@H](CC(N)=O)C(=O)O` [TM11] ({DOTA}-ND[Aib]IN-OH) had a Kd of 190 nM. Besides, on integrin α5β1, the “affinity constant (KD) to integrin α5β1, in words” value was “better than nM level” and the Kd came to 0.0681 nM.
As to `CC[C@H](C)[C@H](NC(=O)[C@@H](NC(=O)[C@H](CC(=O)O)NC(=O)[C@H](CC(N)=O)NC(=O)COCCNC(=O)CN1CCN(CC(=O)O)CCN(CC(=O)O)CCN(CC(=O)O)CC1)C(C)C)C(=O)N[C@@H](CC(N)=O)C(=O)O` [TM13] ({DOTA-AEA}-NDVIN-OH), at integrin αvβ3, the “affinity constant (KD) to integrin αvβ3, in words” value is “nM level” and binding was put at a Kd of 0.646 nM. This molecule yielded a Kd on integrin α5β1 of 1450 nM.
For `CC[C@H](C)C(NC(=O)[C@@H](NC(=O)[C@H](CC(=O)O)NC(=O)[C@H](CC(=O)O)NC(=O)CNC(=O)[C@H](CCCNC(=N)N)NC(=O)CN1CCN(CC(=O)O)CCN(CC(=O)O)CC1)C(C)C)C(=O)N[C@@H](CC(N)=O)C(=O)N[C@@H](Cc1ccccc1)C(=O)O` (stereo partly drawn) [TM3] ({NOTA}-RGDDV[ξIle]NF-OH), on integrin α5β1, the “affinity constant (KD) to integrin α5β1, in words” value is on record as “better than nM level” and the Kd was 1.92 nM.
As for `CC[C@H](C)[C@H](NC(=O)[C@@H]1CCCCN1C(=O)[C@H](CC(=O)O)NC(=O)[C@H](CC(N)=O)NC(=O)CN1CCN(CC(=O)O)CCN(CC(=O)O)CCN(CC(=O)O)CC1)C(=O)NC(CC(N)=O)C(=O)O` (stereo partly drawn) [TM9] ({DOTA}-ND[Pip]I[ξN]-OH), at integrin αvβ3, the “affinity constant (KD) to integrin αvβ3, in words” value was “nM level” and binding was characterised by a dissociation constant (Kd) of 1.8 nM. Further, on integrin α5β1, the “affinity constant (KD) to integrin α5β1, in words” value is listed as “better than nM level” and the Kd turned out to be 5.58 nM.
As for `CC[C@H](C)[C@H](NC(=O)[C@@H](NC(=O)[C@H](CC(=O)O)NC(=O)[C@H](CC(N)=O)NC(=O)CN1CCN(CC(=O)O)CCN(CC(=O)O)CCN(CC(=O)O)CC1)C(C)C)C(=O)N[C@@H](CC(N)=O)C(=O)O` [TM4, DOTA-Asn-Asp-Val-Ile-Asn-OH] ({DOTA}-NDVIN-OH), at integrin αvβ3, the “affinity constant (KD) to integrin αvβ3, in words” value was “nM level” and the affinity, expressed as Kd, was 2.88 nM. The same molecule displayed a Kd at integrin α5β1 of 16 nM.
Take `CC[C@H](C)[C@H](NC(=O)[C@@H](NC(=O)[C@H](CC(=O)O)NC(=O)[C@H](CC(N)=O)NC(=O)CCOCCOCCOCCOCCNC(=O)CN1CCN(CC(=O)O)CCN(CC(=O)O)CCN(CC(=O)O)CC1)C(C)C)C(=O)N[C@@H](CC(N)=O)C(=O)O` [TM5] ({DOTA-PEG4}-NDVIN-OH): at integrin α5β1, the “affinity constant (KD) to integrin α5β1, in words” value was “better than nM level” and the Kd is 2.77 nM.
